Non-standard residues stand in square brackets, D forms with d. Residues, ends and D or L forms follow the SMILES beside them. dPhe(4-NH2) = Nc1ccc(C[C@@H](N)C(=O)O)cc1; dPhe(4-Cl) = N[C@H](Cc1ccc(Cl)cc1)C(=O)O; Phe(4-NH2) = Nc1ccc(C[C@H](N)C(=O)O)cc1; d2Nal = N[C@H](Cc1ccc2ccccc2c1)C(=O)O; Lys(iPr) = CC(C)NCCCC[C@H](N)C(=O)O; d3Pal = N[C@H](Cc1cccnc1)C(=O)O
Tests used:
[1] = hydrophilicity by RP-HPLC retention; type: physicochemical; conditions: for hydrophilicity compared to Acyline: RP-HPLC; for RP-HPLC retention (hydrophilicity): gradient 40% to 75% Buffer B over 30 minutes, Buffer A TEAP pH 7.3, Buffer B 60% CH3CN and 40% Buffer A
[2] = system: ovulation in mature female Sprague-Dawley rats; assay: standard in vivo rat anti-ovulation test; conditions: injected in bacteriostatic water at about noon on the day of proestrus
Method: (§1) The betide is assayed in vivo to determine its effectiveness to prevent ovulation in female rats. Inthis test, a specified number of mature female Sprague-Dawley rats, e.g. five to ten, each having a body weight from 225 to 250 grams, are injected with a specified microgram dosage of the betide in bacteriostatic water at about noon on the day of proestrus. Proestrus is the […]. A separate female rat group is used as a control to which the peptide is not administered. Each of the control female rats ovulates on the evening of proestrus; the number of the rats treated which ovulate is recorded.

[3] = examination of injected rats for tolerance and gelling at the point of injection; type: in vivo, rat; conditions: after injection in the anti-ovulation test
Method: as §1

[4] = system: circulating LH; assay: suppression of circulating LH concentrations, duration of bioactivity; type: in vivo; conditions: dose of 50 micrograms per rat; for duration of bioactivity (LH suppression): testing as in Example 1

hydrophilicity compared to Acyline [1]	Molecule	anti-ovulatory activity: rats ovulating out of rats treated ([2]; dosage 2.5 μg)	also measured
more hydrophilic than Acyline	CC(=O)Nc1ccc(C[C@H](NC(=O)[C@H](CO)NC(=O)C(NC(=O)c2ccncc2)NC(=O)[C@@H](Cc2ccc(Cl)cc2)NC(=O)[C@@H](Cc2ccc3ccccc3c2)NC(C)=O)C(=O)N[C@H](Cc2ccc(NC(C)=O)cc2)C(=O)N[C@@H](CC(C)C)C(=O)N[C@@H](CCCCNC(C)C)C(=O)N2CCC[C@H]2C(=O)N[C@H](C)C(N)=O)cc1 (single isomer, unassigned) [Betide No. 1A first isomer, Ac-β-D-2Nal-D-4Cpa-γ-(4-pyridyl)D/L-amidoGly-Ser-Aph(acetyl)-D- Aph(acetyl)-Leu-Lys(isopropyl)-Pro-D-Ala-NH2]	only the second isomer was bioactive	anti-ovulatory activity: rats ovulating out of rats treated ([2]; dosage 10 μg): 3 out of 7
more hydrophilic than Acyline	Ac-2Nal-4Cl-D-Phe-D-3Pal-Ser-Aph(acetyl)-D-Aph(acetyl)-Leu-Lys(isopropyl)- Pro-D/L-Agl(methyl,For)-NH2 [Betide No. 8C]	0/8	anti-ovulatory activity: rats ovulating out of rats treated ([2]; dosage 1 μg): 1 out of 8
more hydrophilic than Acyline	CC(=O)Nc1ccc(C[C@H](NC(=O)[C@H](CO)NC(=O)C(NC(=O)[C@@H](Cc2ccc(Cl)cc2)NC(=O)[C@@H](Cc2ccc3ccccc3c2)NC(C)=O)N(C)C(=O)c2cccnc2)C(=O)N[C@H](Cc2ccc(NC(C)=O)cc2)C(=O)N[C@@H](CC(C)C)C(=O)N[C@@H](CCCCNC(C)C)C(=O)N2CCC[C@H]2C(=O)N[C@H](C)C(N)=O)cc1 (single isomer, unassigned) [Betide No. 1B second isomer, Ac-β-D-2Nal-D-Cpa-γ-(3-pyridyl)methylD/L-amidoGly-Ser-Aph(acetyl)-D-Aph(acetyl)-Leu-Lys(isopropyl)-Pro-D-Ala-NH2]	3 out of 8	
more hydrophilic than Acyline	CC(=O)Nc1ccc(C[C@H](NC(=O)[C@H](CO)NC(=O)C(NC(=O)[C@@H](Cc2ccc(Cl)cc2)NC(=O)[C@@H](Cc2ccc3ccccc3c2)NC(C)=O)N(C)C(=O)c2cccnc2)C(=O)N[C@H](Cc2ccc(NC(C)=O)cc2)C(=O)N[C@@H](CC(C)C)C(=O)N[C@@H](CCCCNC(C)C)C(=O)N2CCC[C@H]2C(=O)N[C@H](C)C(N)=O)cc1 (single isomer, unassigned) [Betide No. 1B first isomer, Ac-β-D-2Nal-D-Cpa-γ-(3-pyridyl)methylD/L-amidoGly-Ser-Aph(acetyl)-D-Aph(acetyl)-Leu-Lys(isopropyl)-Pro-D-Ala-NH2]	only the second isomer was bioactive	
more hydrophilic than Acyline	CC(=O)Nc1ccc(C[C@H](NC(=O)[C@H](CO)NC(=O)C(NC(=O)c2ccncc2)NC(=O)[C@@H](Cc2ccc(Cl)cc2)NC(=O)[C@@H](Cc2ccc3ccccc3c2)NC(C)=O)C(=O)N[C@H](Cc2ccc(NC(C)=O)cc2)C(=O)N[C@@H](CC(C)C)C(=O)N[C@@H](CCCCNC(C)C)C(=O)N2CCC[C@H]2C(=O)N[C@H](C)C(N)=O)cc1 (single isomer, unassigned) [Betide No. 1A second isomer, Ac-β-D-2Nal-D-4Cpa-γ-(4-pyridyl)D/L-amidoGly-Ser-Aph(acetyl)-D- Aph(acetyl)-Leu-Lys(isopropyl)-Pro-D-Ala-NH2]	2 out of 8	anti-ovulatory activity: rats ovulating out of rats treated ([2]; dosage 10 μg): 0 out of 8
	CC(=O)Nc1ccc(C[C@H](NC(=O)[C@H](CO)NC(=O)[C@@H](Cc2cccnc2)NC(=O)[C@@H](Cc2ccc(Cl)cc2)NC(=O)C(NC(C)=O)NC(=O)c2ccc3ccccc3c2)C(=O)N[C@H](Cc2ccc(NC(C)=O)cc2)C(=O)N[C@@H](CC(C)C)C(=O)N[C@@H](CCCCNC(C)C)C(=O)N2CCC[C@H]2C(=O)N[C@H](C)C(N)=O)cc1 (single isomer, unassigned) [Betide No. 3, Ac-γ-(2-naphthoyl)amidoGly-4Cl-D-Phe-D-3Pal-Ser-Aph(acetyl)-D-Aph(acetyl)-Leu-Lys(isopropyl)-Pro-D-Ala-NH2]	0/8	anti-ovulatory activity: rats ovulating out of rats treated ([2]; dosage 1 μg): 2 out of 7; duration of bioactivity (LH suppression) [4]: ≥ 48 h
more hydrophilic than Acyline	Ac-D-2Nal-(4Cl)D-Phe-D-3Pal-Ser-Aph(acetyl)-D-Aph(acetyl)-Leu-Lys(isopropyl)-Pro-D/L-Agl-NH2 [Betide No. 8A]	0 out of 8	
	CC(=O)Nc1ccc(C[C@H](NC(=O)[C@H](CO)NC(=O)[C@@H](Cc2cccnc2)NC(=O)[C@@H](Cc2ccc(Cl)cc2)NC(=O)C(NC(C)=O)N(C)C(=O)c2ccc3ccccc3c2)C(=O)N[C@H](Cc2ccc(NC(C)=O)cc2)C(=O)N[C@@H](CC(C)C)C(=O)N[C@@H](CCCCNC(C)C)C(=O)N2CCC[C@H]2C(=O)N[C@H](C)C(N)=O)cc1 (single isomer, unassigned) [Betide No. 3C second isomer, Ac-D/L-Agl(methyl,2-naphthoyl)-D-4Cpa-D-3Pal-Ser-Aph(acetyl)-D-Aph(acetyl)-Leu-Lys(isopropyl)-Pro-D-Ala-NH2]		anti-ovulatory activity: rats ovulating out of rats treated ([2]; dosage 5 μg): 6 out of 8
more hydrophilic than Acyline	Ac-D-2Nal-(4Cl)D-Phe-D-3Pal-Ser-Aph(acetyl)-D-Aph(acetyl)-Leu-D/L-Agl(acetyl-β-Ala)-Pro-D-Ala-NH2 [Betide No. 7]	3 out of 9	anti-ovulatory activity: rats ovulating out of rats treated ([2]; dosage 5 μg): 0 out of 11
	CC(=O)Nc1ccc(C[C@H](NC(=O)[C@H](CO)NC(=O)[C@@H](Cc2cccnc2)NC(=O)[C@@H](Cc2ccc(Cl)cc2)NC(=O)[C@@H](Cc2ccc3ccccc3c2)NC(C)=O)C(=O)N[C@H](Cc2ccc(NC(C)=O)cc2)C(=O)N[C@@H](CC(C)C)C(=O)N[C@@H](CCCCNC(C)C)C(=O)N2CCC[C@H]2C(=O)N[C@H](C)C(N)=O)cc1 [Acyline, Ac-D-2Nal-D-4Cpa-D-3Pal-Ser-Aph(Ac)-D-Aph(Ac)-Leu-ILys-Pro-D-Ala-NH2, reference compound] (Ac-[d2Nal][dPhe(4-Cl)][d3Pal]S[Phe(4-NH2)](Ac)[dPhe(4-NH2)](Ac)L[Lys(iPr)]P[dA]-NH2)		RP-HPLC retention (hydrophilicity) [1]: 24.1 min

Molecule	hydrophilicity compared to Acyline [1]	anti-ovulatory activity: rats ovulating out of rats treated ([2]; dosage 2.5 μg)	also measured
CC(=O)Nc1ccc(C[C@H](NC(=O)[C@H](CO)NC(=O)C(NC(=O)c2cccnc2)NC(=O)[C@@H](Cc2ccc(Cl)cc2)NC(=O)[C@@H](Cc2ccc3ccccc3c2)NC(C)=O)C(=O)N[C@H](Cc2ccc(NC(C)=O)cc2)C(=O)N[C@@H](CC(C)C)C(=O)N[C@@H](CCCCNC(C)C)C(=O)N2CCC[C@H]2C(=O)N[C@H](C)C(N)=O)cc1 (single isomer, unassigned) [Betide No. 1, Ac-D-2Nal-(4Cl)D-Phe-γ-(3-pyridyl)amidoGly-Ser-Aph(acetyl)-D-Aph(acetyl)-Leu-Lys(isopropyl)-Pro-D-Ala-NH2]	more hydrophilic		gelling at the point of injection [3]: no significant gelling; tolerance in treated rats [3]: very well tolerated; RP-HPLC retention (hydrophilicity) [1]: 23.5 min; circulating LH concentrations relative to control levels ([4]; for 48 hours or more): less than 25 % of control levels; duration of bioactivity (LH suppression) [4]: ≥ 48 h

— patent US5807983A, “GNRH antagonist betides” (The Salk Institute for Biological Studies, priority 1996, dated 1998)
